Reference: patent publication US20110237665A1, “Agrochemical Composition Comprising Pesticide and UV Absorber” (BASF SE, priority 2008, published 2011)
“And” between values parts separate entries of the source, which are not always exact repeats. Equal entries are not always repeated.

Experiments:
[1] = Light exposure of dried metaflumizone formulation with UV absorber (Atlas Suntest, seven days), residual content by UPLC; type: physicochemical; settings: 100 g/l metaflumizone, 40 g/l UV absorber, exposed to light seven days, unexposed blank = 100%
Protocol: A formulation comprising 100 g/l of metaflumizone and 40 g/l of UV absorber was prepared by two different methods: a) Wet grinding with subsequent addition of UV absorber as in Example 9. b) Wet grinding with UV absorber as in Example 8. About 20 mg of the mixture prepared in this way were applied to a microscope slide, allowed to dry on for 30 minutes and exposed to light continuously for seven days (Atlas Suntest CRT plus, “Outdoor” setting, exposure to light corresponds to the same spectrum and intensity as normal sunlight at midday in summer). After the exposure time, the samples were dissolved in dimethylsulfoxide. […] For comparison, a sample without UV absorber was also allowed to run (reference) in each exposure series. Evaluation: 2 samples were dissolved again as blank samples immediately after the drying on, without exposure to light, and the content of metaflumizone was determined. The resulting mean was set at 100% and the remaining samples were standardized against this.

[2] = Determination of the surface tension of the UV absorbers; type: physicochemical; settings: 25° C.; UV absorber concentrations from about 1 mg/l to 5,000 mg/l; water to air
Protocol: The surface tension (ST) of the UV absorbers was determined at 25° C. at concentrations of the UV absorber of from about 1 mg/l to 5,000 mg/l. The ST of water to air is, for comparison, 72.4 mN/m, the ST of commercial surfactants is about 30-35 mN/m.

[3] = formulation by method a) (wet grinding, subsequent addition of UV absorber)

Row | Molecule | Residual content of metaflumizone (%) [1, 3] | ST [mN/m] (surface tension) [2] | Residual content of metaflumizone (%) ([1]; formulation by method b) (wet grinding with UV absorber))
1 | 2,4,6-trianilino-p-(carboxy-[Pluriol A500E]-yl)-1,3,5-triazine [Example 4B] | 77.5% |  | 
2 | 2-cyano-3,3-diphenyl-acrylic acid [Pluriol A500E] ester [Example 2B] | 76.7% |  | 
3 | 2-cyano-3,3-diphenylacrylic acid [EO-tridecanol]ester [Example 2D] |  | 33.9 mN/m | 
4 | 3,6,9,12-tetraoxatridecylcinnamic acid amide [Example 6A] | 74.7% |  | 
5 | COCCOCCOCCOCCOCCOCCOCCOC(=O)C(C#N)=C(c1ccccc1)c1ccccc1 [Example 2A, 2-cyano-3,3-diphenyl-acrylic acid [Pluriol A350E] ester] | 87.1% | 43.1 mN/m | 
6 | COCCOCCOCCOCCOCCOCCOCCOC(=O)COc1ccc(C(=O)c2ccccc2)c(O)c1 [Example 3B, (4-benzoyl-3-hydroxy-phenoxy)-acetic acid [Pluriol A350E] ester] | 85.9% and 83.2% | 45.7 mN/m | 82.8%
7 | COCCOCCOCCOCCOC(=O)C=Cc1ccccc1 [Example 6B, cinnamic acid 3,6,9,12-tetraoxatridecyl ester] | 66.5% |  | 
8 | p-Aminobenzoic acid ethoxylate [Uvinul P25, reference compound] | 53.3% |  | 
